Measured values: ChEMBL document CHEMBL1155060, “Discovery of brain penetrant, soluble, pyrazole amide EP1 receptor antagonists” (Bioorg Med Chem Lett, 2008)
Values after ≈ are worked out from the molar mass of the structure shown.

What was measured:
[1] = Lipophilicity, log D of the compound; assay type: physicochemical; conditions: octanol/water
[2] = Solubility in water after 0.5 hrs; assay type: physicochemical
[3] = Solubility in simulated gastric fluid after 0.5 hrs; assay type: physicochemical
Liver microsomes = experiment: Metabolic stability assessed as intrinsic clearance in rat liver microsomes; assay type: ADME, Microsome
[4] = Blood clearance in rat at 1 mg/kg, iv; assay type: ADME, organism-based; set-up: dose 1 mg/kg, route intravenous
[5] = Solubility in fasted state simulated intestinal fluid after 0.5 hrs; assay type: physicochemical
[6] = Half life in rat at 1 mg/kg, iv; assay type: ADME, organism-based; set-up: dose 1 mg/kg, route intravenous; conditions: in vivo
[7] = Volume of distribution at steady state in rat at 1 mg/kg, iv; assay type: ADME, organism-based; set-up: dose 1 mg/kg, route intravenous; conditions: in vivo, read-out: Vdss
[8] = Solubility in fed state simulated intestinal fluid after 0.5 hrs; assay type: physicochemical
[9] = biological target: T1, Prostaglandin E2 receptor EP1 subtype (Homo sapiens, UniProt P34995); experiment: Displacement of [H3PGE2 from human EP1 receptor expressed in CHOK1 cells; assay type: cell-based, CHO-K1
T1 sequence (P34995 whole entry): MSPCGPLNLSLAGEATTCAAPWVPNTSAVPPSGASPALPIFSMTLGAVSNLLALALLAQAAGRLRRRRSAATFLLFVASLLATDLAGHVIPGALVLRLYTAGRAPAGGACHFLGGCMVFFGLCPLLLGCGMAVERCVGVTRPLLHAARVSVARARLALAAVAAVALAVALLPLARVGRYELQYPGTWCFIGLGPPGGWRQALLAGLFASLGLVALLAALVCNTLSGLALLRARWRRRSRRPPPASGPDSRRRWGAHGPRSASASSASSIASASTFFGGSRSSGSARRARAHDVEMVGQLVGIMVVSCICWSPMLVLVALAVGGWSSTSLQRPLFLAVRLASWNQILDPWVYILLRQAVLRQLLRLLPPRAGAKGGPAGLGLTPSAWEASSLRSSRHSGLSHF

[10] = biological target: T1, Prostaglandin E2 receptor EP1 subtype; experiment: Antagonist activity of human PGE2 receptor expressed in CHOK1 cells assessed as inhibition of intracellular calcium mobilisation by FLIPR assay; assay type: functional, cell-based, CHO-K1
[11] = Solubility in water after 1 hr; assay type: physicochemical
[12] = Solubility in fed state simulated intestinal fluid after 1 hr; assay type: physicochemical
[13] = Solubility in fasted state simulated intestinal fluid after 1 hr; assay type: physicochemical
[14] = Permeability across MDCK cells; assay type: ADME, cell-based, Canis lupus familiaris; conditions: dog, read-out: permeability
[15] = Ratio of drug level in brain to blood in rat at 5 mg/kg, po after 3 hrs; assay type: ADME, organism-based; set-up: dose 5 mg/kg, route oral
[16] = Ratio of drug level in brain to blood in rat at 3 mg/kg, po after 3 hrs; assay type: ADME, organism-based; set-up: dose 3 mg/kg, route oral
[17] = Ratio of drug level in brain to blood in rat at 10 mg/kg, po after 1 hr; assay type: ADME, organism-based; set-up: dose 10 mg/kg, route oral
[18] = Solubility in fed state simulated intestinal fluid after 2 hrs; assay type: physicochemical
[19] = Solubility in water after 2 hrs; assay type: physicochemical
[20] = Solubility in simulated gastric fluid after 2 hrs; assay type: physicochemical
[21] = Drug level in rat blood at 10 mg/kg, po after 1 hr; assay type: ADME, organism-based; set-up: dose 10 mg/kg, route oral; conditions: read-out: Drug uptake
[22] = Drug level in rat blood at 3 mg/kg, po after 3 hrs; assay type: ADME, organism-based; set-up: dose 3 mg/kg, route oral; conditions: read-out: Drug uptake
[23] = Solubility in fasted state simulated intestinal fluid after 2 hrs; assay type: physicochemical
[24] = Solubility in simulated gastric fluid after 1 hr; assay type: physicochemical

SMILES: Cc1cc(NC(=O)c2ccccc2)nn1Cc1cc(Cl)ccc1OCc1ccccc1
- logD [1]: > 3.7
- solubility at 0.5 h [2]: 2 µg/mL (≈ 4.63 µM)
- solubility at 0.5 h [3]: 2 µg/mL (≈ 4.63 µM)
- CL (Liver microsomes): 7.3 mL/min/g
- clearance [4]: 50 mL/min/kg
- solubility at 0.5 h [5]: 38 µg/mL (≈ 88 µM)
- half-life [6]: 2.5 h
- Vd [7]: 4.1 L/kg
- solubility at 0.5 h [8]: 50 µg/mL (≈ 116 µM)

SMILES: Cc1cc(C(=O)O)nn1Cc1cc(Cl)ccc1OCc1ccccc1
- logD [1]: 1

SMILES: Cc1cc(C(=O)Nc2ccccc2)nn1Cc1cc(Cl)ccc1OCc1ccccc1
- logD [1]: > 3.7
- CL (Liver microsomes): 12 mL/min/g

SMILES: Cc1cc(NC(=O)c2ccc(CO)cc2)nn1Cc1cc(Cl)ccc1OCC(C)C
- IC50 [9]: 12.6 nM

SMILES: Cc1cc(C(=O)Nc2ccc(CN3CCOCC3)cc2)nn1Cc1cc(Cl)ccc1OCc1ccccc1
- IC50 [9]: 10 nM
- Ki [10]: 79.4 nM

SMILES: Cc1cc(C(=O)Nc2ccc(CN3CCCC3)cc2)nn1Cc1cc(Cl)ccc1OCc1ccccc1
- IC50 [9]: 12.6 nM

SMILES: Cc1cc(NC(=O)c2ccccc2CO)nn1Cc1cc(Cl)ccc1OCC(C)C
- IC50 [9]: 25.1 nM

SMILES: Cc1cc(C(=O)Nc2ccc(CN3CCCCC3)cc2)nn1Cc1cc(Cl)ccc1OCc1ccccc1.Cl
- solubility at 1 h [11]: 373 µg/mL
- solubility at 1 h [12]: 64 µg/mL
- IC50 [9]: 12.6 nM

SMILES: CNCc1ccc(NC(=O)c2cc(C)n(Cc3cc(Cl)ccc3OCc3ccccc3)n2)cc1.Cl
- solubility at 1 h [13]: 57 µg/mL
- solubility at 1 h [11]: 253 µg/mL
- Papp [14]: 31.8 ×10⁻⁶ cm/s
- CL (Liver microsomes): 1.8 mL/min/g
- Kp at 3 h [15]: 1.4
- clearance [4]: 46 mL/min/kg
- solubility at 1 h [12]: 185 µg/mL
- half-life [6]: 3 h
- Vd [7]: 9.7 L/kg
- IC50 [9]: 12.6 nM
- Ki [10]: 126 nM

SMILES: CCNCc1ccc(NC(=O)c2cc(C)n(Cc3cc(Cl)ccc3OCc3ccccc3)n2)cc1
- IC50 [9]: 12.6 nM

SMILES: Cc1cc(C(=O)Nc2ccc(CN(C)C)cc2)nn1Cc1cc(Cl)ccc1OCc1ccccc1
- IC50 [9]: 7.94 nM

SMILES: Cc1cc(NC(=O)c2cccc(CN(C)C)c2)nn1Cc1cc(Cl)ccc1OCC(C)C
- IC50 [9]: 631 nM

SMILES: Cc1cc(NC(=O)c2cccc(CN3CCCC3)c2)nn1Cc1cc(Cl)ccc1OCC(C)C
- IC50 [9]: 126 nM

SMILES: Cc1cc(NC(=O)c2ccc(CN(C)C)cc2)nn1Cc1cc(Cl)ccc1OCC(C)C
- IC50 [9]: 100 nM

SMILES: Cc1cc(NC(=O)c2ccc(CN3CCCC3)cc2)nn1Cc1cc(Cl)ccc1OCC(C)C.Cl
- Kp at 3 h [16]: 2
- Kp at 1 h [17]: 1.2
- Papp [14]: 36 ×10⁻⁶ cm/s
- CL (Liver microsomes): 3.2 mL/min/g
- clearance [4]: 46 mL/min/kg
- half-life [6]: 1.4 h
- solubility at 2 h [18]: 520 µg/mL
- Vd [7]: 4.6 L/kg
- solubility at 2 h [19]: > 1000 µg/mL
- IC50 [9]: 50.1 nM
- Ki [10]: 158 nM

SMILES: CCNCc1ccc(C(=O)Nc2cc(C)n(Cc3cc(Cl)ccc3OCC(C)C)n2)cc1.Cl
- Kp at 3 h [16]: 0.9
- solubility at 2 h [20]: 62 µg/mL
- Kp at 1 h [17]: 0.8
- Papp [14]: 52.1 ×10⁻⁶ cm/s
- CL (Liver microsomes): 1.8 mL/min/g
- concentration at 1 h [21]: 107 nM
- clearance [4]: 29 mL/min/kg
- half-life [6]: 2.8 h
- solubility at 2 h [18]: 154 µg/mL
- Vd [7]: 6.3 L/kg
- solubility at 2 h [19]: 690 µg/mL
- IC50 [9]: 100 nM
- concentration at 3 h [22]: 114 nM
- solubility at 2 h [23]: 14 µg/mL
- Ki [10]: 158 nM

SMILES: Cc1cc(NC(=O)c2cccc(CN3CCCCC3)c2)nn1Cc1cc(Cl)ccc1OCC(C)C
- IC50 [9]: 501 nM

SMILES: CNCc1ccc(NC(=O)c2cc(C)n(Cc3cc(Cl)ccc3OCC(C)C)n2)cc1.Cl
- solubility at 1 h [24]: 364 µg/mL
- solubility at 1 h [13]: 483 µg/mL
- solubility at 1 h [11]: 474 µg/mL
- solubility at 1 h [12]: 589 µg/mL
- IC50 [9]: 7.94 nM
- Ki [10]: 79.4 nM

SMILES: Cc1cc(C(=O)Nc2ccc(CN(C)C)cc2)nn1Cc1cc(Cl)ccc1OCC(C)C
- IC50 [9]: 5.01 nM

SMILES: Cc1cc(NC(=O)c2ccc(CN3CCCCC3)cc2)nn1Cc1cc(Cl)ccc1OCC(C)C.Cl
- solubility at 2 h [20]: 30 µg/mL
- solubility at 2 h [18]: 240 µg/mL
- solubility at 2 h [19]: > 1000 µg/mL
- IC50 [9]: 39.8 nM
- solubility at 2 h [23]: 90 µg/mL

SMILES: Cc1cc(NC(=O)c2ccc3c(c2)CCN(C(C)C)C3)nn1Cc1cc(Cl)ccc1OCC(C)C
- IC50 [9]: 100 nM

SMILES: Cc1cc(C(=O)Nc2ccc(CN3CCCCC3)cc2)nn1Cc1cc(Cl)ccc1OCC(C)C.Cl
- solubility at 1 h [24]: 662 µg/mL
- solubility at 1 h [13]: 164 µg/mL
- solubility at 1 h [11]: 811 µg/mL
- solubility at 1 h [12]: 315 µg/mL
- IC50 [9]: 6.31 nM

SMILES: Cc1cc(NC(=O)c2ccc3c(c2)CCNC3)nn1Cc1cc(Cl)ccc1OCC(C)C
- IC50 [9]: 39.8 nM
- Ki [10]: 126 nM

SMILES: Cc1cc(NC(=O)c2ccc(C(C)NCC(C)C)cc2)nn1Cc1cc(Cl)ccc1OCC(C)C (configuration not stated)
- IC50 [9]: 50.1 nM

SMILES: Cc1cc(NC(=O)c2ccc(C(C)N3CCCC3)cc2)nn1Cc1cc(Cl)ccc1OCC(C)C (configuration not stated)
- IC50 [9]: 50.1 nM

SMILES: Cc1cc(C(=O)Nc2ccc(CN3CCCC3)cc2)nn1Cc1cc(Cl)ccc1OCC(C)C
- IC50 [9]: 6.31 nM

SMILES: Cc1cc(NC(=O)c2ccc(C3CCCN3)cc2)nn1Cc1cc(Cl)ccc1OCC(C)C (configuration not stated)
- IC50 [9]: 100 nM
- Ki [10]: 100 nM

SMILES: Cc1cc(NC(=O)c2ccc3c(c2)CCNCC3)nn1Cc1cc(Cl)ccc1OCC(C)C
- IC50 [9]: 79.4 nM

SMILES: CCN1CCc2ccc(C(=O)Nc3cc(C)n(Cc4cc(Cl)ccc4OCC(C)C)n3)cc2CC1
- IC50 [9]: 50.1 nM
- Ki [10]: 50.1 nM

SMILES: Cc1cc(C(=O)Nc2ccc(CNCCO)cc2)nn1Cc1cc(Cl)ccc1OCC(C)C
- IC50 [9]: 25.1 nM
- Ki [10]: 100 nM

SMILES: Cc1cc(C(=O)Nc2ccc(CO)cc2)nn1Cc1cc(Cl)ccc1OCC(C)C
- IC50 [9]: 31.6 nM

SMILES: CCNCc1cccc(C(=O)Nc2cc(C)n(Cc3cc(Cl)ccc3OCC(C)C)n2)c1
- IC50 [9]: 501 nM

SMILES: Cc1cc(C(=O)Nc2ccc(CO)cc2)nn1Cc1cc(Cl)ccc1OCc1ccccc1
- IC50 [9]: 6.31 nM
- Ki [10]: 39.8 nM

SMILES: Cc1cc(NC(=O)c2cccc(CN3CCOCC3)c2)nn1Cc1cc(Cl)ccc1OCC(C)C
- IC50 [9]: 251 nM

SMILES: Cc1cc(NC(=O)c2ccc(CN3CCOCC3)cc2)nn1Cc1cc(Cl)ccc1OCC(C)C
- IC50 [9]: 50.1 nM

SMILES: CCNCc1ccc(NC(=O)c2cc(C)n(Cc3cc(Cl)ccc3OCC(C)C)n2)cc1.Cl
- solubility at 1 h [24]: 905 µg/mL
- solubility at 1 h [13]: 812 µg/mL
- solubility at 1 h [11]: > 1000 µg/mL
- solubility at 1 h [12]: > 1000 µg/mL
- IC50 [9]: 7.94 nM

SMILES: Cc1cc(C(=O)Nc2ccc(CN(CCO)CCO)cc2)nn1Cc1cc(Cl)ccc1OCC(C)C
- IC50 [9]: 15.8 nM
- Ki [10]: 79.4 nM

SMILES: Cc1cc(C(=O)Nc2ccc(CN3CCOCC3)cc2)nn1Cc1cc(Cl)ccc1OCC(C)C
- IC50 [9]: 7.94 nM
